Columns and labels:
RAW264.7 [1] = assay: Inhibition of LPS-induced NO production in mouse RAW264.7 cells incubated for 24 hrs in presence of LPS by Griess reagent based assay; type: functional, cell-based; conditions: RAW264.7, 24 h
RAW264.7 [2] = assay: Cytotoxicity against mouse RAW264.7 cells assessed as effect on cell viability at 10 uM by CCK-8 assay; type: cell-based; conditions: raw264.7, 10 µM

Row | Structure (SMILES) | IC50 (RAW264.7 [1]) | Activity (RAW264.7 [2])
1 | COC1=CC(=O)C2=C(C1=O)[C@@H](c1cc3c(cc1O)OCO3)[C@H](C)[C@@H](C)C2 |  | Toxic
2 | CC(C(=O)c1ccc2c(c1)OCO2)[C@H](C)Cc1ccc2c(c1)OCO2 (stereo not given in full) | > 50 µM | Non-Toxic
3 | CC(Cc1ccc2c(c1)OCO2)[C@H](C)Cc1ccc2c(c1)OCO2 (stereo not given in full) | 16.5 µM | Non-Toxic
4 | C=CCc1cc(OC)c(O[C@H](C)[C@H](O)c2cc(OC)c(OC)c(OC)c2)c(OC)c1 | 46.1 µM | Non-Toxic
5 | C[C@H]1[C@@H]2c3cc4c(cc3O[C@]35OCOC3=CC(=O)[C@@H](C[C@@H]1C)[C@@H]25)OCO4 | > 50 µM | Non-Toxic
6 | C[C@H](Cc1cc2c(cc1O)OCO2)[C@H](C)Cc1cc2c(cc1O)OCO2 | 42.4 µM | Non-Toxic
7 | C=CCc1cc(OC)c(OC)c(OC)c1 | > 50 µM | Non-Toxic
8 | C[C@H](Cc1ccc2c(c1)OCO2)[C@H](C)Cc1cc2c(cc1O)OCO2 (relative stereo) | 41.4 µM | Non-Toxic
9 | N=C(N)NN [PIMAGEDINE] | 25.5 µM | 
10 | C[C@@H]([C@H](C)[C@H](O)c1ccc2c(c1)OCO2)[C@H](O)c1ccc2c(c1)OCO2 [SAUCERNEOL I] | > 50 µM | Non-Toxic

More lines, main results first:

Row | IC50 (RAW264.7 [1]) | Structure (SMILES) | Activity (RAW264.7 [2])
11 | 10.4 µM | C=CCc1cc(OC)c(O[C@H](C)[C@H](OC(C)=O)c2cc(OC)c(OC)c(OC)c2)c(OC)c1 | Non-Toxic
12 | 16.9 µM | C/C=C/c1cc(OC)c(O[C@H](C)[C@H](OC(C)=O)c2cc(OC)c(OC)c(OC)c2)c(OC)c1 | Non-Toxic
13 | 8.6 µM | COC/C=C/c1ccc(O[C@@H](C)C(=O)c2cc(OC)c(OC)c(OC)c2)c(OC)c1 | Non-Toxic
14 | 40.1 µM | COc1cc([C@@H]2OC(=O)O[C@H]2C)cc(OC)c1C | Non-Toxic
15 | 14 µM | C/C=C/c1cc(OC)c(O[C@@H](C)C(=O)c2cc(OC)c(OC)c(OC)c2)c(OC)c1 | Non-Toxic
16 | 5.6 µM | C[C@H]1[C@@H]2c3cc4c(cc3O[C@]35OCOC3=CC(=O)[C@H](C[C@@H]1C)[C@H]25)OCO4 | Non-Toxic
17 | 9.2 µM | C[C@H]1[C@@H]2c3cc4c(cc3O[C@]35OCOC3=CC(=O)[C@@H](C[C@@H]1C)[C@H]25)OCO4 | Non-Toxic
18 | 23.7 µM | C=CCc1cc(OC)c(O[C@@H](C)[C@@H](OC(C)=O)c2cc(OC)c3c(c2)OCO3)c(OC)c1 | Non-Toxic
19 | 35.5 µM | COC/C=C/c1cc(OC)c(O[C@@H](C)[C@@H](O)c2cc(OC)c3c(c2)OCO3)c(OC)c1 | Non-Toxic
20 | 21.1 µM | C/C=C/c1ccc(O[C@@H](C)[C@@H](O)c2ccc(O)c(OC)c2)c(OC)c1 [MACHILIN D] | Non-Toxic
21 | 20.3 µM | COc1cc(C[C@@H](C)[C@@H](C)Cc2ccc(O)c(OC)c2)ccc1O [MESODIHYDROGUAIARETIC ACID] | Non-Toxic

Source: ChEMBL document CHEMBL4334515, “Lignans from Saururus chinensis with Inhibitory Effects on Nitric Oxide Production” (J Nat Prod, 2019)
